{"source": "patent US20240270749A1", "about": "“1,2,4-TRIAZOLO[1,5-A]PYRIMIDINE-BASED SLC16A3 INHIBITORS AND THEIR THERAPEUTIC USE” (CEMM - FORSCHUNGSZENTRUM FÜR MOLEKULARE MEDIZIN GMBH, priority 2021, published 2024)", "note": "Entries after “also recorded” stand apart in the source; their conditions may differ."}
{"tested_on": "HAP1 SLC16A1^−/− cells", "experiment": "Synthetic lethality guided viability screening (CellTiter Glo), HAP1 SLC16A1-/- cells (SLC16A3-dependent)", "format": "cell-based", "details": "Homo sapiens, HAP1; 72 hours, Cell titer glo, from dose response curves", "description": "(§1) Compounds were printed to individual wells of 384 well plates (Corning) with Echo acoustic liquid dispenser (Labcyte). HAP1 cells were seeded using a dispenser (Thermo Fischer Scientific) in density 1,000 cells per well in 50 μl. As controls, DMSO or Bortezomib treatments were used. Viability of cells was assessed after 72 hours with CellTiter Glo (Promega) and % of controls were calculated based on RLU values in DMSO (100%) and Bortezomib (0%) wells. First screening was performed in 10 μM final concentration. Second screening was performed in technical duplicates, in 4 point dose response setting, with concentrations ranging from 13-0.5 μM. Third screening was performed in technical triplicates in 6 point dose response setting, with concentrations ranging from 27-0.11 μM. LAMA84 cells were used in density 3,000 cells per well. AZD3965, BAY-8002, syrosingopine and compounds obtained from third party vendors were tested in 96 well plates, with 2,500 cells per well with manual seeding and treatment. Compound efficacy was determined either by comparing % of control, or by IC50 estimation based on dose response curves (calculated with R package drc, or with GraphPad Prism).\n(§2) Table 1: Results of synthetic lethality guided chemical screening assay. HAP1 WT, HAP1 SLC16A1^−/− or HAP1 SLC16A3^−/− cell lines were treated with presented compounds for 72 hours and viability was determined by Cell titer glo assay (Promega). Data are presented either as a percentage of viability in HAP1 SLC16A1^−/− cells compared to controls (DMSO=100% and Bortezomib=0%) upon single dose treatment (10 μM) or as IC50 values obtained from dose response curves.", "units": {"IC50": "µM"}}
{"smiles": "CSc1nc2nc(C)c(CCC(=O)Nc3ccc(C)cc3)c(C)n2n1", "note": "[Compound 3]", "IC50": 2.34}
{"smiles": "Cc1nc2nc(C(F)(F)F)nn2c(C)c1CCC(=O)Nc1cnc2ccccc2c1", "note": "[Compound 8]", "IC50": 0.25}
{"smiles": "Cc1ccc(NC(=O)CCc2c(C)nc3nc(C(F)(F)F)nn3c2C)cc1", "note": "[Compound 1]", "IC50": 3.32}
{"smiles": "CCOc1ccc(NC(=O)CCc2c(C)nc3ncnn3c2C)cc1", "note": "[Compound 10]", "IC50": 7.07}
{"tested_on": "HAP1 SLC16A1^−/− cells", "experiment": "Synthetic lethality guided viability screening (CellTiter Glo), HAP1 SLC16A1-/- cells (SLC16A3-dependent)", "format": "cell-based", "details": "Homo sapiens, HAP1; single dose 10 μM, 72 hours, Cell titer glo; compared to controls DMSO=100%, Bortezomib=0%; read-out: HAP1 SLC16A1^−/− % of viability", "description": "as §1, §2", "units": {"viability at 10 µM": "%"}}
{"smiles": "Cc1nc2nc(C)c(CCC(=O)Nc3ccc(Br)cc3)c(C)n2n1", "note": "[Compound 16]", "viability at 10 µM": 38.7}
{"smiles": "Cc1nc2nc(C)c(CCC(=O)Nc3ccc(Br)c(C)c3)c(C)n2n1", "note": "[Compound 11]", "viability at 10 µM": 33.7}
{"smiles": "Cc1nc2nc(C)c(CCC(=O)Nc3ccc(C)c(C)c3)c(C)n2n1", "note": "[Compound 13]", "viability at 10 µM": 37}
{"smiles": "CCc1cccc(NC(=O)CCc2c(C)nc3nc(C)nn3c2C)c1", "note": "[Compound 12]", "viability at 10 µM": 36.4}
{"smiles": "CCc1ccc(NC(=O)CCc2c(C)nc3nc(C)nn3c2C)cc1", "note": "[Compound 14]", "viability at 10 µM": 37.5}
{"smiles": "CCOc1ccc(NC(=O)CCc2c(C)nc3ncnn3c2C)cc1", "note": "[Compound 10]", "viability at 10 µM": 70.8}
{"tested_on": "cells dependent on SLC16A3 in HAP1 and LAMA84 cell lines", "experiment": "Selectivity counter screen, HAP1 and LAMA84 cell line panel", "format": "cell-based", "details": "panel incl. LAMA84 sgRen/sgSLC16A1/sgSLC16A3, HAP1 dependent on SLC16A7 or SLC16A8, rescue lines", "description": "as §1\nTo get further insights into the selectivity and mode of action of these hits, the inventors created a selection of compounds with similar structure to their hits from the whole library and tested those further. […]"}
{"smiles": "Cc1nc2nc(C)c(CCC(=O)Nc3ccc(C)c(C)c3)c(C)n2n1", "note": "[Compound 13]", "selective killing in HAP1 and LAMA84 cell line panel (in words)": "selectively kill only cells dependent on SLC16A3"}
{"tested_on": "NCIH358 cells", "experiment": "Lactate Glo lactate accumulation, NCIH358 lung cancer cells", "format": "cell-based", "details": "10 μM, 6 hours", "description": "(§3) Protocol for lactate glo was modified based on Benjamin D et al., Cell Reports, 2018, 25(11):3047-3058.e4. Cells were seeded in 96 well plate in density 30,000 cells per well. Next day cells were treated with tested compounds, AZD3965 and syrosingopine (all in final concentration of 10 μM) or DMSO. After 6 hours of incubation at 37° C., cells were washed twice with PBS, lysed with 0.2N HCl, neutralized with 1M Tris-base (Sigma) and incubated for 1 hour at RT with lactate glo reagents (Promega). Lactate accumulation was then estimated based on luminescence signal."}
{"smiles": "Cc1nc2nc(C(F)(F)F)nn2c(C)c1CCC(=O)Nc1cnc2ccccc2c1", "note": "[Compound 8]", "lactate accumulation in NCIH358 cells": "confirmed the lactate accumulation in both cell lines"}
{"tested_on": "HAP1 SLC16A3^−/− cells", "experiment": "Lactate Glo lactate accumulation, HAP1 SLC16A3-/- cells", "format": "cell-based", "details": "10 μM, 6 hours", "description": "as §3"}
{"smiles": "Cc1nc2nc(C)c(CCC(=O)Nc3ccc(C)c(C)c3)c(C)n2n1", "note": "[Compound 13]", "lactate accumulation in HAP1 SLC16A3^−/− cells": "no accumulation was observed; also recorded: did not affect lactate accumulation"}
{"tested_on": "HAP1 SLC16A1^−/− cells", "experiment": "Lactate Glo lactate accumulation, HAP1 SLC16A1-/- cells", "format": "cell-based", "details": "10 μM, 6 hours", "description": "as §3"}
{"smiles": "Cc1nc2nc(C)c(CCC(=O)Nc3ccc(C)c(C)c3)c(C)n2n1", "note": "[Compound 13]", "lactate accumulation in HAP1 SLC16A1^−/− cells": "lactate accumulation comparable to control (syrosingopine); also recorded: significant lactate accumulation was observed"}
{"tested_on": "HAP1 dependent on SLC16A7", "experiment": "Viability of HAP1 cells dependent on SLC16A7", "format": "cell-based", "details": "SLC16A7 overexpressed in HAP1 SLC16A3^−/−, SLC16A1 knocked out", "from_the_text": "To test this, the inventors overexpressed SLC16A7 or SLC16A8 in HAP1 SLC16A3^−/− cells and knocked out SLC16A1 using CRISPR/Cas9. […]"}
{"smiles": "Cc1[nH]nc(C(F)(F)F)c1Cc1sc2c(c1C(=O)N1C[C@](C)(O)CO1)c(=O)n(C)c(=O)n2C(C)C", "note": "[AZD3965, reference compound]", "killing of HAP1 cells dependent on SLC16A7 (in words)": "can be killed"}
{"smiles": "O=C(Nc1ccccc1C(=O)O)c1cc(S(=O)(=O)c2ccccc2)ccc1Cl", "note": "[BAY-8002, reference compound]", "killing of HAP1 cells dependent on SLC16A7 (in words)": "can be killed"}
{"tested_on": "HAP1 SLC16A3^−/− cells", "experiment": "Synthetic lethality guided viability screening (CellTiter Glo), HAP1 SLC16A3-/- cells (SLC16A1-dependent)", "format": "cell-based", "details": "not given", "description": "as §1, §2"}
{"smiles": "Cc1[nH]nc(C(F)(F)F)c1Cc1sc2c(c1C(=O)N1C[C@](C)(O)CO1)c(=O)n(C)c(=O)n2C(C)C", "note": "[AZD3965, reference compound]", "effect on viability of HAP1 SLC16A3^−/− cells (in words)": "reduced viability"}
{"smiles": "O=C(Nc1ccccc1C(=O)O)c1cc(S(=O)(=O)c2ccccc2)ccc1Cl", "note": "[BAY-8002, reference compound]", "effect on viability of HAP1 SLC16A3^−/− cells (in words)": "reduced viability"}
{"tested_on": "HAP1 SLC16A3^−/− cells", "experiment": "Synthetic lethality guided viability screening (CellTiter Glo), HAP1 SLC16A3-/- cells (SLC16A1-dependent)", "format": "cell-based", "details": "Homo sapiens, HAP1; 72 hours, Cell titer glo, from dose response curves; read-out: HAP1 SLC16A31^−/− IC50", "description": "as §1, §2", "units": {"IC50": "µM"}}
{"smiles": "CSc1nc2nc(C)c(CCC(=O)Nc3ccc(C)cc3)c(C)n2n1", "note": "[Compound 3]", "IC50": "> 30"}
{"smiles": "Cc1nc2nc(C(F)(F)F)nn2c(C)c1CCC(=O)Nc1cnc2ccccc2c1", "note": "[Compound 8]", "IC50": "> 30"}
{"smiles": "Cc1ccc(NC(=O)CCc2c(C)nc3nc(C(F)(F)F)nn3c2C)cc1", "note": "[Compound 1]", "IC50": "> 30"}
{"smiles": "CCOc1ccc(NC(=O)CCc2c(C)nc3ncnn3c2C)cc1", "note": "[Compound 10]", "IC50": "> 30"}
{"tested_on": "HAP1 SLC16A1^−/− cells", "experiment": "Growth curve, HAP1 SLC16A1-/- cells", "format": "cell-based", "details": "different concentrations; counted 24 h, 48 h, 72 h", "description": "Cells were seeded in 6 well plate in density of 15,000 cells per well in the presence of different concentrations of tested compounds in DMSO, or matching DMSO concentrations. Cells were washed with PBS, harvested with trypsin and counted with CASY counter (Roche) 24 h, 48 h and 72 h after the seeding. Cell number obtained at 24 h was set as 0, for each time point and concentration two wells were harvested and counted."}
{"smiles": "Cc1nc2nc(C(F)(F)F)nn2c(C)c1CCC(=O)Nc1cnc2ccccc2c1", "note": "[Compound 8]", "growth rate / proliferation of HAP1 SLC16A1^−/− cells": "confirmed the growth reducing effect; also recorded: slowed down the proliferation in a dose-dependent manner"}
{"target": "T1, SLC16A3 (Homo sapiens, UniProt O15427)", "T1 construct": "expressed in transfected cells; lysate supernatant used", "T1 sequence (O15427 1-465)": "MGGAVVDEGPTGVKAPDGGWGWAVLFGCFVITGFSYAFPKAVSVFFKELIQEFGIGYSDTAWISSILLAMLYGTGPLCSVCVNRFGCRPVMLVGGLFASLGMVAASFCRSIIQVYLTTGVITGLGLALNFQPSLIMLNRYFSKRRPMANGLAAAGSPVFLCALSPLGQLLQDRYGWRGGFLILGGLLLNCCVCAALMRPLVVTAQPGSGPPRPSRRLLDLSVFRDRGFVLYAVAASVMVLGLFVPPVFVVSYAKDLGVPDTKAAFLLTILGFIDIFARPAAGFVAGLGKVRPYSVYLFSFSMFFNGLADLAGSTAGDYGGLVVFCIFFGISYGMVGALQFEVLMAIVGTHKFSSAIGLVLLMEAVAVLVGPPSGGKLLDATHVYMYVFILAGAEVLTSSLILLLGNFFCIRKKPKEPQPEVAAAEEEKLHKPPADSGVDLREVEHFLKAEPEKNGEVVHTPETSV", "experiment": "Cellular Thermal Shift Assay (CETSA), HEK293T lysates with HIBIT-tagged SLC16A3", "format": "binding", "details": "HEK293T lysate, HIBIT-tagged SLC16A3, split-nano luciferase readout", "description": "HEK293T cells with stable expression of HIBIT-tagged SLC16A3 were lysed as described in Hashimoto M et al., ACS Chemical Biology, 2018, 13(6):1480-86. Lysates were then centrifugated at 14,000 RPM, 20 min at 4° C. Supernatant were next incubated with tested compounds or DMSO on ice for 1 hour. After that samples were aliquoted to PCR strips, heated in gradient thermocycler for 6 min and let cool down at room temperature (RT) for 3 min. Samples were then centrifugated at 14,000 RPM, 40 min at 4° C. and protein abundance in supernatants was determined using HIBIT lytic detection system (Promega) in 384 well plate. Reagents for HIBIT detection were diluted in lysis buffer (Hashimoto M et al., loc. cit.) instead of buffer provided with kit. All measurements were done in technical triplicate."}
{"smiles": "Cc1nc2nc(C)c(CCC(=O)Nc3ccc(C)c(C)c3)c(C)n2n1", "note": "[Compound 13]", "shift in melting temperature of SLC16A3 (CETSA)": "showed a shift in melting temperature of SLC16A3"}
{"tested_on": "HAP1 WT cells", "experiment": "Synthetic lethality guided viability screening (CellTiter Glo), HAP1 WT cells", "format": "cell-based", "details": "Homo sapiens, 72 hours, Cell titer glo, from dose response curves", "description": "as §1, §2", "units": {"IC50": "µM"}}
{"smiles": "CSc1nc2nc(C)c(CCC(=O)Nc3ccc(C)cc3)c(C)n2n1", "note": "[Compound 3]", "IC50": "> 30"}
{"smiles": "Cc1nc2nc(C(F)(F)F)nn2c(C)c1CCC(=O)Nc1cnc2ccccc2c1", "note": "[Compound 8]", "IC50": "> 30"}
{"smiles": "Cc1ccc(NC(=O)CCc2c(C)nc3nc(C(F)(F)F)nn3c2C)cc1", "note": "[Compound 1]", "IC50": "> 30"}
{"smiles": "CCOc1ccc(NC(=O)CCc2c(C)nc3ncnn3c2C)cc1", "note": "[Compound 10]", "IC50": "> 30"}
{"tested_on": "NCIH441 cells", "experiment": "Lactate Glo lactate accumulation, NCIH441 lung cancer cells", "format": "cell-based", "details": "10 μM, 6 hours", "description": "as §3"}
{"smiles": "Cc1nc2nc(C(F)(F)F)nn2c(C)c1CCC(=O)Nc1cnc2ccccc2c1", "note": "[Compound 8]", "lactate accumulation in NCIH441 cells": "confirmed the lactate accumulation in both cell lines"}
